Measured values from patent US20140335135A1, “PHARMACEUTICAL COMPOSITION” (FERRING BV, priority 2011, published 2014).

Legend:
[1] = Particle size distribution by optical microscopy (diameter of the coextensive circle); type: physicochemical
Protocol: Two different methods were used to incorporate triptorelin into the hexyl substituted polylactide polymer. The first was a “separate milling and mixing” method in which the triptorelin was micronized using an SPEX 6700 Freezer/mill at −196° C. in liquid nitrogen (milling for 5 min), the resulting micronized powder being mixed with the hexyl substituted polylactide polymer by kneading in plastic bags until a homogeneous formulation was obtained (as verified by optical microscopy).
In the second method, lyophilised triptorelin (10% by weight of polymer or 5% by weight polymer or 2.5% by weight polymer) was incorporated into the polymer by a combined direct “cryo-milling-mixing” technique. The triptorelin was micronized together with the polymer in a cryo-mill (SPEX 6700 Freezer/mill) at −196 C for five minutes in liquid nitrogen. The particle size distribution in the formulations was analysed using an Optishot-2 microscope (Nikon, Tokyo, Japan) and ImageJ software.
The kneading provided a homogenous suspension (FIG. 1a) although the average diameter increased to 9.0 μm because some larger particles of more than 30 μm were formed due to agglomeration.

[2] = Solubility of triptorelin in hexyl substituted polylactide polymer; type: physicochemical
Description: Triptorelin is not soluble in the hexyl substituted polylactide polymer (which is a viscous liquid) because of its relatively high hydrophilicity. The lyophilized triptorelin was therefore micronized, by cryomilling or spray-drying, to ensure small particle size for incorporation into the polymer. Preferably the triptorelin (or salt/derivative thereof) is micronized/mixed with the polylactide at a temperature below the glass transition temperature of the polylactide, more preferably at temperature of around −196° C., so as to avoid melting and resulting increased viscosity of the polylactide.

Q: With `CC(C)C[C@H](NC(=O)[C@@H](Cc1c[nH]c2ccccc12)NC(=O)[C@H](Cc1ccc(O)cc1)NC(=O)[C@H](CO)NC(=O)[C@H](Cc1c[nH]c2ccccc12)NC(=O)[C@H](Cc1c[nH]cn1)NC(=O)[C@@H]1CCC(=O)N1)C(=O)N[C@@H](CCCNC(=N)N)C(=O)N1CCC[C@H]1C(=O)NCC(N)=O` [Triptorelin, L-Pyroglutamyl-L-histidyl-Ltryptophyl-L-seryl-L-tyrosyl-D-tryptophyl-L-eucy-L-arginy-L-prolyl-glycinamide] as the compound, how does the “average diameter for the coextensive circle” value [1] read?
A: 5.6 μm

Q: What about the “solubility in the hexyl substituted polylactide polymer” value [2] of the same compound?
A: not soluble
